Experimental data taken from US4005220A, “Hemostatic compositions comprising salts of substituted hydroquinone sulfonic acid” (Laboratorios del Dr. Esteve, S.A., priority 1973, dated 1977).
“Also recorded” adds a separate entry of the source.

Experiments:
[1] = Acute toxicity in mice, LD50 (method of Reed and Muench); assay type: in vivo; conditions: mouse, in vivo, po
Method: (§1) 1. Acute toxicity in mice
(§2) Albino mice of 18 to 25 g. The LD50 was determined in accordance with the method of Reed and Muench.
(§3) The acute toxicity in mice was determined in accordance with the method of REED and MUENCH, in a modified form (Reed L. J. and Muench H., Am. J. Hyg., 27, 493, 1938). The effect on the average bleeding time was determined by the Roskam technique modified by Laporte (Laporte J., Chemotherapia, 3, 62, 1961).

mice = assay: as above; assay type: in vivo; conditions: mice (summary table)
Method: as §1, §2, §3

[2] = Partition coefficient butanol/water
[3] = test system: average bleeding time (A.B.T.); assay: Activity-time relationship of the decrease in the A.B.T.; assay type: in vivo, rabbits; conditions: 5 micromols/kg
Text: 3. Activity-time relationship

capillary permeability = assay: Protective effect on the capillaries: capillary permeability, BEACH-STEINITZ method in a modified form; assay type: in vivo; conditions: intraperitoneally, mice; in words
Text: 4. Protective effect on the capillaries

[4] = test system: average bleeding time (A.B.T.); assay: Effect on the average bleeding time (A.B.T.), Roskam technique modified by Laporte; assay type: in vivo; conditions: one hour after administration, rabbits
Method: 2. Effect on the average bleeding time
as §3

## CC(C)(C)c1cc(O)c(S(=O)(=O)O)cc1O [cyclohexylamine (tertiary butyl)-p-dihydroxybenzenesulphonate]
[1]
  LD50: 1000 mg/kg

## Ammonium (tertiary butyl)-p-dihydroxybenzenesulphonate
mice; i.v.
  LD50: 600 mg/kg
[2]
  Partition coefficient butanol/water: 0.42

## Calcium (tertiary butyl)-p-dihydroxybenzenesulphonate
mice; p.o.
  LD50: 2,337 mg/kg
[2]
  Partition coefficient butanol/water: 1.36

## Diethylamine (tertiary butyl)-p-dihydroxybenzenesulphonate
[3]; 1 hour after intravenous administration
  % decrease in the A.B.T.: 42%
[3]; 2 hours after intravenous administration
  % decrease in the A.B.T.: 43.5%
[3]; 4 hours after intravenous administration
  % decrease in the A.B.T.: 41.0%
[3]; 8 hours after intravenous administration
  % decrease in the A.B.T.: 34.8%
[3]; 16 hours after intravenous administration
  % decrease in the A.B.T.: 33.0%
[3]; 24 hours after intravenous administration
  % decrease in the A.B.T.: 22.5%
[3]; 48 hours after intravenous administration
  % decrease in the A.B.T.: 14.0%
[3]; in words
  duration of effect: lasts for a long time; also recorded: lasts for a markedly longer time than the products already described hitherto
Capillary permeability
  capillary permeability: marked decrease in the capillary permeability
[4]; 0.625 micromols/kg
  Decrease in the A.B.T. in %: 7%
[4]; 1.25 micromols/kg
  Decrease in the A.B.T. in %: 25%
[4]; 2.5 micromols/kg
  Decrease in the A.B.T. in %: 34%
[4]; 5.0 micromols/kg
  Decrease in the A.B.T. in %: 42%
[4]; 7.05 (sic) micromols/kg
  Decrease in the A.B.T. in %: 49%
[4]; 10.0 micromols/kg
  Decrease in the A.B.T. in %: 55%
[2]
  Partition coefficient butanol/water: 2.38

## Sodium methyl-p-dihydroxybenzenesulphonate
mice; p.o.
  LD50: > 1,000 mg/kg
[2]
  Partition coefficient butanol/water: 0.87

## lithium (tertiary butyl)-p-dihydroxybenzenesulphonate
mice; i.v.
  LD50: 1,000 mg/kg
[2]
  Partition coefficient butanol/water: 1.28
